Entries after “also recorded” stand apart in the source; their conditions may differ. Numbered stars: 1 amine (or outer) side, 2 acyl side, 3 side chain; on linkers, the order of the positions; unused ones are H or OH. Bridge positions count the residues as written; N and C are the ends. Square brackets hold non-standard residues; d marks the D form. Peptide text beside a SMILES is read from it. * marks the point of attachment. Orn(4R-OH,5R-OCH2CH2NMe3+) = C[N+](C)(C)CCO[C@@H](N[*:3])[C@H](O)C[C@H](N[*:1])C(=O)[*:2]; pTerphenylCO(4''-OnC5H11) = CCCCCOc1ccc(-c2ccc(-c3ccc(C(=O)*)cc3)cc2)cc1; hTyr(3S-OH,4S-OH) = N[C@H](C(=O)O)[C@H](O)[C@@H](O)c1ccc(O)cc1; Pro(3S-OH,4S-Me) = C[C@H]1CN[C@H](C(=O)O)[C@H]1O; Hyp = O=C(O)[C@@H]1C[C@@H](O)CN1
Experiments:
[1] = target: MDR1 (Homo sapiens, UniProt P08183); experiment: NC-160 substrate interaction, MDR1; assay type: in vitro ADME; conditions: efflux (ABC) transporter
Description: (§1) Microbiology Spectrum Supplementary materials
(§2) Table S 4Summary of initial in vitro assessments […]
(§3) whether rezafungin can induce CYP isoforms 1A2, 2B6, or 3A4. mRNA expression) of CYP1A2 and CYP2B6, and, in the case of […]
(§4) Abbreviations: ABC = ATP binding cassette; BCRP = breast cancer resistance protein; BSEP = bile salt export pump; CYP = cytochrome P450; MATE = multidrug and toxic compound extrusion; MDCK = Madin-Darby canine kidney; MDR = multidrug resistance protein; mRNA = messenger ribonucleic acid; OAT = organic anion transporter; OATP = organic anion transporter protein; OCT – organic cation transporter; OCTN = organic cation transporter novel; P-gp = P-glycoprotein; SLC = solute carrier.

[2] = tested on: Caco-2 epithelial monolayers; experiment: NC-049 membrane permeability in Caco-2 monolayers; assay type: in vitro ADME; conditions: Caco-2 epithelial monolayers expressing human P-gp and BCRP; both transport directions, in the absence and presence of inhibitors; study NC-049
Description: as §1, §2, §3, §4

[3] = target: T1, CYP2C19 (Homo sapiens, UniProt P33261); experiment: NC-153 time-dependent inhibition in human liver microsomes, CYP2C19; assay type: in vitro ADME; conditions: 0.1 to 25 μM
Description: as §1, §2, §3, §4

[4] = target: T1, CYP2C19; experiment: NC-012 CYP450 inhibition screening, recombinant CYP2C19; assay type: in vitro ADME; conditions: 10 μM, fluorogenic substrate, recombinant human CYP
Description: as §1, §2, §3, §4

[5] = target: CYP2B6 (Homo sapiens, UniProt P20813); experiment: NC-012 CYP450 inhibition screening, recombinant CYP2B6; assay type: in vitro ADME; conditions: 10 μM, fluorogenic substrate, recombinant human CYP
Description: as §1, §2, §3, §4

[6] = target: T2, CYP2C8 (Homo sapiens, UniProt P10632); experiment: NC-153 time-dependent inhibition in human liver microsomes, CYP2C8; assay type: in vitro ADME; parameters: in human liver microsomal preparations; from tissue; host or cells: human liver microsomes; conditions: 0.1 to 25 μM
T2 sequence (P10632 1-490): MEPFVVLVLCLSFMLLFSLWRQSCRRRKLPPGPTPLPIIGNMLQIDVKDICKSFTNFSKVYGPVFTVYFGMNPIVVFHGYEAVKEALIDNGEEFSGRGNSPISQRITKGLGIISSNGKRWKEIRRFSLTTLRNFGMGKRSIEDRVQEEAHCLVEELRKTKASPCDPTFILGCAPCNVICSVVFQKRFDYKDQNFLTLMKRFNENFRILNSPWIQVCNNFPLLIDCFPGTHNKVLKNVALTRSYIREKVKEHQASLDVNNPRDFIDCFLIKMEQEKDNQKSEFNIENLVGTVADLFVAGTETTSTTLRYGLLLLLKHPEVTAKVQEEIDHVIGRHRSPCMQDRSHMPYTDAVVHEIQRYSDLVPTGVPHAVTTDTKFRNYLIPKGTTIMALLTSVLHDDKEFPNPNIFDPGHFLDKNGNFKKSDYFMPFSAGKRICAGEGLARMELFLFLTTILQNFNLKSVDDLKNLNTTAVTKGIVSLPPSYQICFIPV
Description: as §1, §2, §3, §4

[7] = target: CYP3A4 (Homo sapiens, UniProt P08684); experiment: NC-012 CYP450 inhibition screening, recombinant CYP3A4; assay type: in vitro ADME; conditions: benzyloxyresorufin substrate, recombinant human CYP
Description: as §1, §2, §3, §4

[8] = target: human OAT3 (Homo sapiens, UniProt Q8TCC7); experiment: NC-152 transporter inhibition, OAT3; assay type: in vitro ADME; conditions: in vitro cell test system
Description: as §1, §2, §3, §4

[9] = target: T3, human P-gp (Homo sapiens, UniProt P08183); experiment: NC-049 P-gp substrate potential in Caco-2 monolayers; assay type: in vitro ADME; conditions: with/without inhibitors
Description: as §1, §2, §3, §4

[10] = Study 1 safety and tolerability (TEAEs); assay type: in vivo, human
Protocol: After screening, subjects were admitted to the clinical research unit (CRU) prior to the first dose of rezafungin (from day −22) and were discharged from the CRU on day 22. Nine oral substrate drugs were administered as part of a cocktail containing two or more drugs once before and once after receiving rezafungin on a schedule designed to allow the washout of the drugs in the cocktail between doses and limit interactions with other drugs (Fig. 4A). […] A loading dose of rezafungin for injection (600 mg) was administered over 1 h on day 1, followed by two once-weekly 400-mg doses over 1 h on days 10 and 15. Due to a short delay in the availability of the investigation study drug, the second once-weekly dose of rezafungin and the second set of oral substrate drugs were administered on day 10 instead of day 8, although the time between doses remained sufficient for all originally planned PK samplings through 96 h postdose and for the adequate washout of the substrate drugs. The total duration of treatment was up to 89 days, including 45 days of screening and 44 days of treatment in the CRU.
as §1
Table S 2Summary of t reatment-emergent adverse e vents for Study 1
System Organ Class Safety Population Adverse Event Severity(N=26), n Rezafungin Safety Population (N=26), n
Adverse Event Mild Moderate Severe Mild Moderate Severe […]

[11] = target: BSEP (Homo sapiens, UniProt O95342); experiment: NC-152 BSEP inhibition in membrane vesicles; assay type: in vitro ADME
Description: as §1, §2, §3, §4

[12] = target: T3, human P-gp; experiment: NC-152 transporter inhibition, P-gp; assay type: in vitro ADME; conditions: in vitro cell test system
Description: (§5) Abbreviations: ABC = ATP binding cassette; BCRP = breast cancer resistance protein; BSEP = bile salt export pump; CYP = cytochrome P450; MATE =
(§6) multidrug and toxic compound extrusion; MDCK = Madin-Darby canine kidney; MDR = multidrug resistance protein; mRNA = messenger ribonucleic acid;
(§7) OAT = organic anion transporter; OATP = organic anion transporter protein; OCT – organic cation transporter; OCTN = organic cation transporter novel; P-gp =
(§8) P-glycoprotein; SLC = solute carrier.

[13] = Precipitation in human liver microsome incubations (NC-153); assay type: physicochemical
Description: as §1, §2, §3, §4

[14] = target: human OATP1B3 (Homo sapiens, UniProt Q9NPD5); experiment: NC-152 transporter inhibition, OATP1B3; assay type: in vitro ADME
Description: as §5, §6, §7, §8

[15] = target: CYP2D6 (Homo sapiens, UniProt P10635); experiment: NC-012 CYP450 inhibition screening, recombinant CYP2D6; assay type: in vitro ADME; conditions: 10 μM, fluorogenic substrate, recombinant human CYP
Description: as §1, §2, §3, §4

T3 sequence (P08183 whole entry): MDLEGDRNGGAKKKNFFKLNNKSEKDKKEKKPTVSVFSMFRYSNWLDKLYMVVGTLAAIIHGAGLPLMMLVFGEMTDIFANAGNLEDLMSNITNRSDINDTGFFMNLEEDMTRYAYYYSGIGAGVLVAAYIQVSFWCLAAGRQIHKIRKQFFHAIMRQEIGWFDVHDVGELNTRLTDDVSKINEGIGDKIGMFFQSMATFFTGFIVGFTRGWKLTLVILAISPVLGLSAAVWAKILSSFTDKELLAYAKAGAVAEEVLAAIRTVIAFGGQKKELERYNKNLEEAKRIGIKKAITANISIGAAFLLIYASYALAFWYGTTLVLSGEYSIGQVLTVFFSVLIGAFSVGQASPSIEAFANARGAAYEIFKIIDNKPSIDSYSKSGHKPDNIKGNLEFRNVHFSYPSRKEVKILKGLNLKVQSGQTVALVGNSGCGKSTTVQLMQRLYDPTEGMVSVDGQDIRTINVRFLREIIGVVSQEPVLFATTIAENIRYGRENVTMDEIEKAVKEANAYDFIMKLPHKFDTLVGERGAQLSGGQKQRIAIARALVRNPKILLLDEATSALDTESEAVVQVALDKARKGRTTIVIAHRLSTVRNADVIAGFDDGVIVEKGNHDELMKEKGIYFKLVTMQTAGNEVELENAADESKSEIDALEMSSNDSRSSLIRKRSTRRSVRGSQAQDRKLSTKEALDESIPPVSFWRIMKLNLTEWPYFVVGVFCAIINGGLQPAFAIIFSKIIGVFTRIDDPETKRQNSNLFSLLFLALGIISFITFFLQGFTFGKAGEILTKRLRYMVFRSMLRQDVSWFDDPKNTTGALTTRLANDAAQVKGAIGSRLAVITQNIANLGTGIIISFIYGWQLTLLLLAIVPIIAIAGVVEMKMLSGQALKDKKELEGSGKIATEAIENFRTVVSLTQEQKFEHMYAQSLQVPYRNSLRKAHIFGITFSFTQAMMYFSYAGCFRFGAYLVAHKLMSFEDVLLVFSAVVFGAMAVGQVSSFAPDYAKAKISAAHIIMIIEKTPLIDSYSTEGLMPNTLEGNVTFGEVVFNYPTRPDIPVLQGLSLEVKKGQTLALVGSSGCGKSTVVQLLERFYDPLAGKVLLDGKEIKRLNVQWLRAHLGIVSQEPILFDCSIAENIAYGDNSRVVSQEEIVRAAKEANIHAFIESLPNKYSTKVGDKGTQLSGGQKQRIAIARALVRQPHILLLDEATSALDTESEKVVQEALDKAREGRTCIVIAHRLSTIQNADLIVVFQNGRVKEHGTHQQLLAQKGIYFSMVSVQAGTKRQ
T1 sequence (P33261 whole entry): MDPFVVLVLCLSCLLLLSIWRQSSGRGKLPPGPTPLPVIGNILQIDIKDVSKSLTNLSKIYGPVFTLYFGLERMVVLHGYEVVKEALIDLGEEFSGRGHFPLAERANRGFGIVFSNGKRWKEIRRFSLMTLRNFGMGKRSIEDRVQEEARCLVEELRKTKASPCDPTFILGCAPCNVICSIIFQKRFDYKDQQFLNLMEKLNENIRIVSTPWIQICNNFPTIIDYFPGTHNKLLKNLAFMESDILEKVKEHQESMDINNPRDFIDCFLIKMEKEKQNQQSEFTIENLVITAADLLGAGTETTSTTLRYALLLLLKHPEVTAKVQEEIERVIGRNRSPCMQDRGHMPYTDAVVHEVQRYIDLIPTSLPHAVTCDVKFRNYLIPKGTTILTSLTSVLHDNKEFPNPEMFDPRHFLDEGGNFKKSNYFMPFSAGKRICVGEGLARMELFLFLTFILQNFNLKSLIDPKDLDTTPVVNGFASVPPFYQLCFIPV
Sequence of human OATP1B3 (Q9NPD5 whole entry): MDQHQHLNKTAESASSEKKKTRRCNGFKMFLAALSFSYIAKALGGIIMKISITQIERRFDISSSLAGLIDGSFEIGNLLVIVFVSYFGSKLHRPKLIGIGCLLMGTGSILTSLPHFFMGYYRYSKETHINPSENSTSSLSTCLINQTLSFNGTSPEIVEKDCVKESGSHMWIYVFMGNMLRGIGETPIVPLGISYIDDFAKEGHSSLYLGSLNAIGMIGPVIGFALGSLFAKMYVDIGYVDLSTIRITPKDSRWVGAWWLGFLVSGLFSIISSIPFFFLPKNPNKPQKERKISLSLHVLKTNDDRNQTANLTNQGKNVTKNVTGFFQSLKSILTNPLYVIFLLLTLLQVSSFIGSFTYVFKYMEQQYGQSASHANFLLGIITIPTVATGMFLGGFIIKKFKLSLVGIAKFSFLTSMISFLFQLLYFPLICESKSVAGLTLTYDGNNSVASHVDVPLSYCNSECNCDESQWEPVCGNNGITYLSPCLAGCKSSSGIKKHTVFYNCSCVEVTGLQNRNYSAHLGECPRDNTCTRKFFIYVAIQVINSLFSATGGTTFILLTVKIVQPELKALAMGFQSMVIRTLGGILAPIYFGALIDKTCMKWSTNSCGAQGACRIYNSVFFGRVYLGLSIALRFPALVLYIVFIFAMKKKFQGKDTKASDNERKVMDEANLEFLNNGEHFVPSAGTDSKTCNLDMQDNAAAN
Sequence of MDR1 (P08183 whole entry): as the sequence (P08183 whole entry) above
Sequence of BSEP (O95342 whole entry): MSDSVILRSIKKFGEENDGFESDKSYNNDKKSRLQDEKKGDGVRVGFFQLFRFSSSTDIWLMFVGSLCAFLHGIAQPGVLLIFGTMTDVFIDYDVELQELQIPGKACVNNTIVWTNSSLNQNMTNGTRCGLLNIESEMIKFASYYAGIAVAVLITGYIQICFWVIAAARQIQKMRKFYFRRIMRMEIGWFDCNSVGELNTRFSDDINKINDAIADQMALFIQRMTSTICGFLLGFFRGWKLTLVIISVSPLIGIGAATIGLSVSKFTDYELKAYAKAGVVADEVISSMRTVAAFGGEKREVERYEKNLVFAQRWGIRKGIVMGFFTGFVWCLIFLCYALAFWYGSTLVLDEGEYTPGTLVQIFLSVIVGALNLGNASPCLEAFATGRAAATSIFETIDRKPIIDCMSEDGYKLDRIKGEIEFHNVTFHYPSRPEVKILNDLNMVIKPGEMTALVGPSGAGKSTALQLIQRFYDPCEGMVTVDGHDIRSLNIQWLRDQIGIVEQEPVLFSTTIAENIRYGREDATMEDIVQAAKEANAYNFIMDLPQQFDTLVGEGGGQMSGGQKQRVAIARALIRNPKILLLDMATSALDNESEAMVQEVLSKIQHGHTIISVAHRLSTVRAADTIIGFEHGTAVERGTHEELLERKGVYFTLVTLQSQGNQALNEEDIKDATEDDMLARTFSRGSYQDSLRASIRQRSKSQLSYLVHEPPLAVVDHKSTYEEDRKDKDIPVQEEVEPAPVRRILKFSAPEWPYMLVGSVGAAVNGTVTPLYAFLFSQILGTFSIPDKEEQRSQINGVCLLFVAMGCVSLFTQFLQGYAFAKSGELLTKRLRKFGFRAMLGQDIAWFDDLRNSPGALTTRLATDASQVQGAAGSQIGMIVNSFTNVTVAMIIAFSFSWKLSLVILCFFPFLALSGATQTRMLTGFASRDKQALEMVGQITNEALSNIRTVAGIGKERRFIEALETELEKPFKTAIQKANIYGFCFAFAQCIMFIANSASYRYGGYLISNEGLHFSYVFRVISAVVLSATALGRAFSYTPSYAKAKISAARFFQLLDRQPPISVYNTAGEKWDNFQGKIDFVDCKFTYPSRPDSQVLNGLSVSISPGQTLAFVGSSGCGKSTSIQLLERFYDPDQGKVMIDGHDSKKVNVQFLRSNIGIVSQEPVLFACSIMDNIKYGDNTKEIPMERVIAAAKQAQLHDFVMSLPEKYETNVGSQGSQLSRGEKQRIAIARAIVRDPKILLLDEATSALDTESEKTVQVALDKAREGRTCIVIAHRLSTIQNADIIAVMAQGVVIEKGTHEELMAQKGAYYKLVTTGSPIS

CCCCCOc1ccc(-c2ccc(-c3ccc(C(=O)N[C@H]4C[C@@H](O)[C@@H](OCC[N+](C)(C)C)NC(=O)[C@@H]5[C@@H](O)[C@@H](C)CN5C(=O)[C@H]([C@@H](C)O)NC(=O)[C@H]([C@H](O)[C@@H](O)c5ccc(O)cc5)NC(=O)[C@@H]5C[C@@H](O)CN5C(=O)[C@H]([C@@H](C)O)NC4=O)cc3)cc2)cc1 [Rezafungin] ({pTerphenylCO(4''-OnC5H11)}-[Orn(4R-OH,5R-OCH2CH2NMe3+)]T[Hyp][hTyr(3S-OH,4S-OH)]T[Pro(3S-OH,4S-Me)]; lactam 1-C)
substrate of MDR1 [1]: not a substrate | permeability coefficient [2]: < 0.2 ×10⁻⁶ cm/s | time-dependent inhibitor of CYP2C19 [3]: not a time-dependent inhibitor | inhibition of CYP2C19 [4]: Minimal inhibition | inhibition of CYP2B6 [5]: Minimal inhibition | time-dependent inhibitor of CYP2C8 [6]: not a time-dependent inhibitor | inhibition at 10 µM [7]: 81% | inhibitor of probe substrate transport mediated via OAT3 [8]: not | substrate of P-gp [9]: not a substrate | serious TEAEs, deaths, discontinuations due to a TEAE ([10]; Study 1): no serious TEAEs or deaths or discontinuations due to a TEAE | tolerability ([10]; once-weekly i.v. infusions, 600-mg loading dose followed by two 400-mg maintenance doses): generally well tolerated | inhibitor of probe substrate transport mediated via BSEP [11]: not | inhibitor of probe substrate transport mediated via P-gp [12]: determined to be an inhibitor; also recorded: could not be ruled out | concentration at which precipitation occurred [13]: ≥ 25 µM | inhibitor of probe substrate transport mediated via OATP1B3 ([14]; in vitro cell test system, NC-152): determined to be an inhibitor | IC50 ([14]; initial in vitro studies, read-out: IC50, OATP-1B3 uptake transporter (moderate inhibition)): > 6 µM | inhibition of CYP2D6 [15]: Minimal inhibition
